The test system of one data set is Full-length AR (AR-FL). Description: Degradation experiment on full-length AR (AR-FL) in 22RV1 cells. The format is cell-based. To be noted: 2 μM, 24 h. How it is done:
(§1) Prostate cancer cells 22RV1 were purchased from ATCC, the cell medium was 1640+10% FBS, and the cells were cultured in an incubator at 37° C. under 5% CO2. On day 1, the cells in an exponential phase were collected. With a 1% css-FBS phenol red-free medium, the cell suspension was adjusted to a corresponding concentration and plated into a 6-well plate at 1 mL/well and 100000 cells/well. The next day, a 1% css-FBS phenol-free medium containing the compound to be tested was added, a 1% css-FBS phenol-free medium containing 0.2% DMSO was added to one well as DMSO vehicle control, and the 6-well plate was cultured in an incubator at 37° C. under 5% CO2. After 24 h, the cells were digested with pancreatin and collected into a 1.5 mL centrifuge tube. […] The supernatant protein samples were collected, and protein quantification was performed by a BCA method. AR-FL and AR-Vs were detected using fully automatic protein expression quantitative analysis, which involved diluting the protein to be tested to 1 mg/mL, 4 μL of the diluted protein samples were added to 1 μL of […] (provided in the kit), and the prepared samples were denatured at 95° C. for 5 min and placed on ice for use. […] The prepared reagents were successively added to an assay plate according to instructions of the kit and detected on an instrument. […]

In data set [1] the test system is AR splice variants (AR-Vs). Description: Degradation experiment on AR splice variants (AR-Vs) in 22RV1 cells. The conditions noted are these: 2 μM, 24 h. The format is cell-based. Here is the method:
as §1

A short description of data set [2]: Pharmacokinetic test in rats. The format is in vivo. To be noted: rat, plasma, po, male SD rats; for bioavailability: i.g. 5 mg/kg vs intravenous 2 mg/kg; for AUC(0-t): i.g. 5 mg/kg.
For data set [3], the target named is T1, AR splice variant 7 (AR-V7) (Homo sapiens, UniProt P10275).
T1 construct: host or cells: 22RV1 prostate cancer cells
T1 sequence (P10275 1-644 isoform P10275-3): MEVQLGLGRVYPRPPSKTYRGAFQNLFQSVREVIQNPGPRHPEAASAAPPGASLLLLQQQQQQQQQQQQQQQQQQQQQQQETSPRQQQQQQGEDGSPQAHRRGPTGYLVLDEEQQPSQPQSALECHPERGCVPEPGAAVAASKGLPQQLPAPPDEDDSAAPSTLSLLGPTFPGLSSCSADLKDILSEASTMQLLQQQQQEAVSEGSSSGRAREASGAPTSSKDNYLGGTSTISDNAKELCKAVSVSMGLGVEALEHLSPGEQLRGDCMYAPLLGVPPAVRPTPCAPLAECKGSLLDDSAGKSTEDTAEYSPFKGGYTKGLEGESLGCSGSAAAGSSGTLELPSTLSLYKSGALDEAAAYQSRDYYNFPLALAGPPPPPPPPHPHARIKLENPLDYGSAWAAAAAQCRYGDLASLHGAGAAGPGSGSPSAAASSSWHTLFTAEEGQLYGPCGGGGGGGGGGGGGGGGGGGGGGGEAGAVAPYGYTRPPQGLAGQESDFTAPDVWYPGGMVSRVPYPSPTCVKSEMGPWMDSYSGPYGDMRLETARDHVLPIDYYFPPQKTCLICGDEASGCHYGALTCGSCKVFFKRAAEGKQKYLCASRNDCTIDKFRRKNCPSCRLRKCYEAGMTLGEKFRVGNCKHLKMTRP
The experiment in a line: Degradation experiment on AR splice variant 7 (AR-V7) in 22RV1 cells. Type of data set: cell-based. The conditions noted are these: 24 h. Here is the method:
Prostate cancer cells 22RV1 were purchased from ATCC, the cell medium was 1640+10% FBS, and the cells were cultured in an incubator at 37° C. under 5% CO2. On day 1, the cells in an exponential phase were collected. With a 1% css-FBS phenol red-free medium, the cell suspension was adjusted to a corresponding concentration and plated into a 6-well plate at 1 mL/well and 300000 cells/well. The next day, a 1% css-FBS phenol-free medium containing the compound to be tested was added, a 1% css-FBS phenol-free medium containing 0.2% DMSO was added to one well as DMSO vehicle control, and the 6-well plate was cultured in an incubator at 37° C. under 5% CO2. After 24 h, the cells were digested with pancreatin and collected into a 1.5 mL centrifuge tube. 15 μL of RIPA lysate (containing 1× protease inhibitor cocktail) was added to each well, and the cells were lysed on ice for 15 min and then centrifuged at 12000 g at 4° C.′ for 10 min. The supernatant protein samples were collected, and protein quantification was performed by a BCA method. AR-V7 was detected using fully automatic protein expression quantitative analysis, which involved diluting the protein to be tested to 2 mg/mL, 4 μL of the diluted protein samples were added to 1 μL of 5× Master Mix (provided in the kit), and the prepared samples were denatured at 95° C. for 5 min and placed on ice for use. The primary antibodies. AR V7 (CST, 19672S) and β-actin (CST, 3700), were diluted with Antibody Diluent II (provided in the kit) at a dilution ratio of 1:10 and 1:500, respectively. The secondary antibody was a mixed goat anti-mouse and goat anti-rabbit secondary antibody in a ratio of 1:1, and the color development solution was a mixed solution of Lumino-S and Peroxide in a ratio of 1:1. The prepared reagents were successively added to an assay plate according to instructions of the kit and detected on an instrument. Western blot band processing was performed using “Compass for SW”, a fully automatic protein expression quantitative analysis software, in which western blot bands were automatically simulated based on signal values. The degradation rate of AR-V7 (4) relative to vehicle control at different compound concentrations was calculated according to formula (4), wherein AR-V7compound was the relative peak area of AR-V7 in the treated group, and AR-V7solvent was the relative peak area of AR-V7 in the vehicle control group.
DC50 calculation: the compound concentration DC50 values at which the degradation rate of AR-V7 was 50% were calculated using Graphpad software and analyzed using log (inhibitor) vs. response-Variable slope (four parameters) function according to formula (4).

Data set [4] relates to Prostate cancer cells 22RV1. The experiment in a line: Experiment on inhibiting 22RV1 cell proliferation (CellTiter-Glo, 7 days). Type of data set: cell-based. To be noted: Homo sapiens, 168 h, 22RV1 cells, 7 days incubation, cells with nM printed beside the value, read-out: IC50 values for inhibition of 22RVI cells. In short, it runs like this: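 22RV1 cells at 2000/well in 1% charcoal-stripped-FBS phenol red-free medium, treated next day with compound for 7 days at 37 °C, 5% CO2. Viability by CellTiter-Glo luminescence; inhibition relative to DMSO vehicle, IC50 from dose-response fit.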
(Cellular ATP, detected with luciferase, serves as a proxy for viable cell number.)

Where only a bound is given, the exact number is not on record here.

As usually defined, the bioavailability is the share of a dose that reaches the circulation, judged against a reference dose that is usually intravenous. Lower therefore signals little systemic uptake. Broadly, the AUC(0-t) is exposure summed from dosing to a finite time, without extrapolation to infinity. The low end stands for less exposure, the high end for more exposure. For orientation: DC50 means the midpoint of the concentration-degradation curve. Usually IC50 stands for the point on the concentration scale where inhibition reaches its midpoint.

Regarding `CC(C)(C(=O)Nc1cnc(C#N)c(C(F)(F)F)c1)n1cc(C#CC2CN(c3ccc4c(c3)C(=O)N(C3CCC(=O)NC3=O)C4=O)C2)cn1` (centres unmarked) [Compound 4, N-(6-cyano-5-(trifluoromethyl)pyridin-3-yl)-2-(4-((1-(2-(2,6-dioxopiperidin-3-yl)-1,3-dioxoisoindolin-5-yl)azetidin-3-yl)ethynyl)-1H-pyrazol-1-yl)-2-methylpropanamide], the “degradation effect on AR-FL” value in the data set with Full-length AR (AR-FL) is reported as “significant degradation effect”. Also, the “degradation effect on AR-Vs” value in data set [1] is “significant degradation effect”. In data set [2], this compound returned a bioavailability of 51.2 ± 9.7% and an AUC(0-t) of 29400 ± 5590 ng·h/mL.

In data set [3], `CC(C)(C(=O)Nc1ccc(C(F)(F)F)cc1-c1nccs1)n1cc(C#CC2CN(c3ccc4c(c3)C(=O)N(C3CCC(=O)NC3=O)C4=O)C2)cn1` (centres unmarked) [Compound 155, 2-(4-((1-(2-(2,6-dioxopiperidin-3-yl)-1,3-dioxoisoindolin-5-yl)azetidin-3-yl)ethynyl)-1H-pyrazol-1-yl)-2-methyl-N-(2-(thiazol-2-yl)-4-(trifluoromethyl)phenyl) propanamide] showed a DC50 of less than 500 nM. Further, the IC50 in data set [4] is less than 50 nM. In data set [2], this compound came in with a bioavailability of 37.9 ± 2.2% and an AUC(0-t) of 12000 ± 711 ng·h/mL.

For the origin of these results see patent US20250171417A1, “HETEROCYCLIC DERIVATIVE, AND COMPOSITION AND PHARMACEUTICAL USE THEREOF” (Xizang Haisco Pharmaceutical Co., Ltd., priority 2021, published 2025).
